Laboratory results reported in patent US8389523B2, “Substituted quinoxaline and an agrochemical composition thereof” (Kumiai Chemical Industry Co., Ltd., priority 2007, dated 2013).

Tests used:
Assay type in all cases: in vivo
Set-up in all cases: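 grade 0 to 5 of growth suppression where 5 is 90% or more and 0 below 10%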
[1] = test system: Echinochloa oryzicola Vasing; assay: Herbicidal effects in paddy field soil treatment (Test Example 1); conditions: paddy field soil treatment; 1000 g of the active ingredient per hectare; wettable powder added dropwise on water surface; 21st day after treatment
Procedure, shortened: (§1)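 Weed seeds were sown into puddled, leveled paddy soil in pots and flooded to 3 cm water depth. One day later the diluted wettable powder formulation was dropped onto the water surface at 1000 g active ingredient per hectare. Herbicidal effect was scored on day 21 after greenhouse growth.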

[2] = test system: Monochoria vaginalis (Burm. f.) Presl var. plantaginea (Roxb.) Solms-Laub.; assay: as above; conditions: paddy field soil treatment; 1000 g of the active ingredient per hectare; wettable powder added dropwise on water surface; 21st day after treatment
Procedure, shortened: as §1

[3] = test system: Scirpus juncoides Roxb. var. ohwianus. T. Koyama; assay: as above; conditions: paddy field soil treatment; 1000 g of the active ingredient per hectare; wettable powder added dropwise on water surface; 21st day after treatment
Procedure, shortened: as §1

[4] = test system: Abutilon theophrasti medicus; assay: Herbicidal effects in upland field foliar treatment (Test Example 3); conditions: criteria of Table 138; for herbicidal effects on Abutilon theophrasti medicus: 1000 g of the active ingredient per hectare, 14th day after the treatment, wettable powder; for herbicidal effect (index) on Abutilon theophrasti medicus: 1000 g active ingredient per hectare, 14th day after treatment
Method: (§2) Test Example 3 Test on Herbicidal Effects in Upland Field Foliar Treatment A 80-cm^2 plastic pot was filled with upland field soil. Seeds of Echinochloa crus-galli (L.) P. Beauv. var. crus-galli, Abutilon theophrasti medicus and Amaranthus viridis L. were sowed, and the plants were grown for two weeks in a greenhouse. A wettable powder formulation prepared according to Preparation Example 1 was diluted with water, and was sprayed with a small sprayer to perform foliar application over the entirety of plants from the upper side, in an amount equivalent to 1000 liters per hectare, such that 1000 g of the active ingredient per hectare was applied. Thereafter, the plants were grown in a greenhouse, and on the 14th day after the treatment, the herbicidal effects were investigated according to the criteria described in the Table 138 shown above.

Amaranthus viridis L. = assay: as above; conditions: criteria of Table 138; for herbicidal effects on Amaranthus viridis L.: 1000 g of the active ingredient per hectare, 14th day after the treatment, wettable powder; for herbicidal effect (index) on Amaranthus viridis L.: 1000 g active ingredient per hectare, 14th day after treatment
Method: as §2

[5] = test system: Echinochloa crus-galli (L.) P. Beauv. var. crus-galli; assay: as above; conditions: criteria of Table 138; for herbicidal effects on Echinochloa crus-galli (L.) P. Beauv. var. crus-galli: 1000 g of the active ingredient per hectare, 14th day after the treatment, wettable powder; for herbicidal effect (index) on Echinochloa crus-galli (L.) P. Beauv. var. crus-galli: 1000 g active ingredient per hectare, 14th day after treatment
Method: as §2

SMILES	Herbicidal effects index, Echinochloa oryzicola Vasing [1]	Herbicidal effects index, Monochoria vaginalis (Burm. f.) Presl var. plantaginea (Roxb.) Solms-Laub. [2]	Herbicidal effects index, Scirpus juncoides Roxb. var. ohwianus. T. Koyama [3]	herbicidal effects on Abutilon theophrasti medicus [4]	herbicidal effects on Amaranthus viridis L. (Amaranthus viridis L.)	herbicidal effects on Echinochloa crus-galli (L.) P. Beauv. var. crus-galli [5]	herbicidal effect (index) on Abutilon theophrasti medicus [4]	herbicidal effect (index) on Amaranthus viridis L. (Amaranthus viridis L.)	herbicidal effect (index) on Echinochloa crus-galli (L.) P. Beauv. var. crus-galli [5]
COc1ccc(-n2c(=O)c(C(=O)C3=C(O)CCCC3=O)nc3cccc(OC)c32)cc1 [II-257]	5	5	5	4	5	5	–	–	–
C[S+]([O-])CCOCn1c(=O)c(C(=O)C2=C(O)CCCC2=O)nc2ccccc21 (stereo not drawn) [I-67]	4	5	5	–	–	–	5	5	4
CC(C)Oc1cccc(-n2c(=O)c(C(=O)C3=C(O)CCCC3=O)nc3ccccc32)c1 [II-74]	5	5	5	4	4	3	–	–	–
CSCCn1c(=O)c(C(=O)C2=C(O)CCCC2=O)nc2ccccc21 [Compound I-91]	5	5	5	–	–	–	5	5	5
O=C1CCCC(O)=C1C(=O)c1nc2ccccc2n(-c2ccc(OCC3CCCO3)cc2)c1=O (stereo not drawn) [II-116]	5	5	5	4	5	4	–	–	–
CS(=O)(=O)c1cccc(-n2c(=O)c(C(=O)C3=C(O)CCCC3=O)nc3ccccc32)c1 [II-124]	4	5	5	4	5	5	–	–	–
Cc1cc(-n2c(=O)c(C(=O)C3=C(O)CCCC3=O)nc3ccccc32)ccc1F [II-214]	5	5	5	5	5	5	–	–	–
C#CCn1c(=O)c(C(=O)C2=C(O)CCCC2=O)nc2ccccc21 [I-35]	5	5	5	–	–	–	5	5	4
COc1ccc(-n2c(=O)c(C(=O)C3=C(O)CCCC3=O)nc3ccccc32)cc1F [II-178]	4	5	5	5	5	5	–	–	–
COc1cccc2nc(C(=O)C3=C(O)CCCC3=O)c(=O)n(-c3ccccc3)c12 [II-256]	5	5	5	4	5	5	–	–	–
O=C1CCCC(O)=C1C(=O)c1nc2ccccc2n(Cc2ccccc2Cl)c1=O [I-111]	5	5	5	–	–	–	5	5	5
O=C1CCCC(O)=C1C(=O)c1nc2ccccc2n(Cc2cccc(Cl)c2)c1=O [I-112]	5	5	5	–	–	–	5	5	4
O=C1CCCC(O)=C1C(=O)c1nc2ccccc2n(-c2ccc(O)cc2)c1=O [II-51]	5	5	5	5	5	4	–	–	–
CSc1cccc(-n2c(=O)c(C(=O)C3=C(O)CCCC3=O)nc3ccccc32)c1 [II-121]	4	5	5	4	4	4	–	–	–
CCCCCCn1c(=O)c(C(=O)C2=C(O)CCCC2=O)nc2ccccc21 [Compound I-22]	5	5	5	–	–	–	5	5	4
O=C1CCCC(O)=C1C(=O)c1nc2cccnc2n(CCc2ccccc2)c1=O [III-235]	5	5	5	5	5	5	–	–	–
CS(=O)(=O)CCn1c(=O)c(C(=O)C2=C(O)CCCC2=O)nc2ccccc21 [Compound I-92]	4	5	5	–	–	–	5	5	5
CN(C)c1ccc(-n2c(=O)c(C(=O)C3=C(O)CCCC3=O)nc3ccccc32)cc1 [II-210]	5	5	5	5	5	4	–	–	–
